Data taken from patent US6872707B1, “Halo derivatives of 9-deoxo-9a-aza-homerythromycin A” (PLIVA farmaceutska industrija dionicko drustvo, priority 1999, dated 2005).

Key:
Format in all cases: cell-based
resistent strains = assay: In vitro antibacterial activity against resistent strains
Text: (§1) In vitro action of the novel compounds was investigated on a series of standard and resistent test microorganisms. […] In N′-(C1-C6)haloalkylcarbamoyl derivatives similar traits were observed.

[1] = tested on: S. aureus, E. faecalis and S. pneumoniae; assay: In vitro antibacterial action of haloaryl derivatives on standard and resistent test microorganisms; details: comparison within the series
Text: as §1

[2] = tested on: test microorganisms sensitive to erythromycin; assay: In vitro antibacterial activity against erythromycin-sensitive test microorganisms
Text: as §1

## CC[C@H]1OC(=O)[C@H](C)[C@@H](O[C@H]2C[C@@](C)(OC)[C@@H](O)[C@H](C)O2)[C@H](C)[C@@H](O[C@@H]2O[C@H](C)C[C@H](N(C)C)[C@H]2O)[C@](C)(O)C[C@@H](C)CN(C(=S)Nc2cccc(C(F)(F)F)c2)[C@H](C)[C@@H](O)[C@]1(C)O [Example 21, 9-deoxo-9a-N-{N′-[(3-trifluoromethyl-phenyl)thiocarbamoyl]}-9a-aza-9a-homoerythromycin A]
Resistent strains
  activity against resistent strains: showed an activity against resistent strains
[1]
  antibacterial in vitro activity (effectiveness): the most active one
[2]
  activity against test microorganisms sensitive to erythromycin: activity against test microorganisms sensitive to erythromycin
